pIC50: −log10 of the molar value.
Test system: 958667-338-R-J2-PDC tumor spheroids viability
Assay: Anticancer human tumor 958667-338-R-J2-PDC patient-derived colon adenocarcinoma cell line growth inhibition [PI3K]
Conditions: spheroids with HUVEC and MSC; for pIC50: curve of first compound; for viability, T/C: stronger effect = lower value
Outline: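 Tumor cells were combined with HUVEC and MSCs into spheroids, then dosed with PI3K-inhibitor combinations over half-log ranges capped near clinical Cmax or 10 microM.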

[1] = second compound 0.0316 µM, first compound 0.000316 µM
[2] = second compound 0.0316 µM, first compound 0.001 µM
[3] = second compound 0.0316 µM, first compound 0.00316 µM
[4] = second compound 0.0316 µM, first compound 0.01 µM
[5] = second compound 0.0316 µM, first compound 0.0316 µM
[6] = second compound 0.0316 µM, first compound 0.1 µM
[7] = second compound 0.1 µM, first compound 0.000316 µM
[8] = second compound 0.1 µM, first compound 0.001 µM
[9] = second compound 0.1 µM, first compound 0.00316 µM
[10] = second compound 0.1 µM, first compound 0.01 µM
[11] = second compound 0.1 µM, first compound 0.0316 µM
[12] = second compound 0.1 µM, first compound 0.1 µM
[13] = second compound 0.316 µM, first compound 0.000316 µM
[14] = second compound 0.316 µM, first compound 0.001 µM
[15] = second compound 0.316 µM, first compound 0.00316 µM
[16] = second compound 0.316 µM, first compound 0.01 µM
[17] = second compound 0.316 µM, first compound 0.0316 µM
[18] = second compound 0.316 µM, first compound 0.1 µM
[19] = second compound 1 µM, first compound 0.000316 µM
[20] = second compound 1 µM, first compound 0.001 µM
[21] = second compound 1 µM, first compound 0.00316 µM
[22] = second compound 1 µM, first compound 0.01 µM
[23] = second compound 1 µM, first compound 0.0316 µM
[24] = second compound 1 µM, first compound 0.1 µM
[25] = second compound 3.16 µM, first compound 0.000316 µM
[26] = second compound 3.16 µM, first compound 0.001 µM
[27] = second compound 3.16 µM, first compound 0.00316 µM
[28] = second compound 3.16 µM, first compound 0.01 µM
[29] = second compound 3.16 µM, first compound 0.0316 µM
[30] = second compound 3.16 µM, first compound 0.1 µM
[31] = second compound 10 µM, first compound 0.000316 µM
[32] = second compound 10 µM, first compound 0.001 µM
[33] = second compound 10 µM, first compound 0.00316 µM
[34] = second compound 10 µM, first compound 0.01 µM
[35] = second compound 10 µM, first compound 0.0316 µM
[36] = second compound 10 µM, first compound 0.1 µM
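Further: spheroids exposed to compounds for seven days before readout.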

Structure (SMILES): Cn1ncnc1[C@H]1c2n[nH]c(=O)c3cc(F)cc(c23)N[C@@H]1c1ccc(F)cc1 + Cc1nc(NC(=O)N2CCCC2C(N)=O)sc1-c1ccnc(C(C)(C)C(F)(F)F)c1
- pIC50 (second compound 0.0316 µM): < 7.00
- pIC50 (second compound 0.1 µM): < 7.00
- pIC50 (second compound 0.316 µM): < 7.00
- pIC50 (second compound 1 µM): < 7.00
- pIC50 (second compound 3.16 µM): < 7.00
- pIC50 (second compound 10 µM): < 7.00
- viability, T/C [1]: 98.7%
- viability, T/C [2]: 92%
- viability, T/C [3]: 113%
- viability, T/C [4]: 106%
- viability, T/C [5]: 94.5%
- viability, T/C [6]: 107%
- viability, T/C [7]: 98%
- viability, T/C [8]: 96.7%
- viability, T/C [9]: 83.2%
- viability, T/C [10]: 101%
- viability, T/C [11]: 91.7%
- viability, T/C [12]: 93%
- viability, T/C [13]: 81.4%
- viability, T/C [14]: 109%
- viability, T/C [15]: 82.4%
- viability, T/C [16]: 102%
- viability, T/C [17]: 87%
- viability, T/C [18]: 71.2%
- viability, T/C [19]: 83.2%
- viability, T/C [20]: 86.4%
- viability, T/C [21]: 101%
- viability, T/C [22]: 82.6%
- viability, T/C [23]: 78.4%
- viability, T/C [24]: 79.5%
- viability, T/C [25]: 78.4%
- viability, T/C [26]: 78.7%
- viability, T/C [27]: 85.8%
- viability, T/C [28]: 72.5%
- viability, T/C [29]: 82.8%
- viability, T/C [30]: 91.3%
- viability, T/C [31]: 57.9%
- viability, T/C [32]: 64.8%
- viability, T/C [33]: 73.3%
- viability, T/C [34]: 60.8%
- viability, T/C [35]: 72.7%
- viability, T/C [36]: 60.8%

Structure (SMILES): CC(C)n1nc(-c2ccc3oc(N)nc3c2)c2c(N)ncnc21 + CC(Nc1ncnc2nc[nH]c12)c1cc2cccc(Cl)c2c(=O)n1-c1ccccc1
- pIC50 (second compound 0.0316 µM): 7.13
- pIC50 (second compound 0.1 µM): 7.14
- pIC50 (second compound 0.316 µM): 7.11
- pIC50 (second compound 1 µM): 7.08
- pIC50 (second compound 3.16 µM): 7.23
- pIC50 (second compound 10 µM): 7.21
- viability, T/C [1]: 96.8%
- viability, T/C [2]: 95.3%
- viability, T/C [3]: 98.5%
- viability, T/C [4]: 112%
- viability, T/C [5]: 73.6%
- viability, T/C [6]: 42.1%
- viability, T/C [7]: 127%
- viability, T/C [8]: 101%
- viability, T/C [9]: 107%
- viability, T/C [10]: 92.8%
- viability, T/C [11]: 74.7%
- viability, T/C [12]: 39.4%
- viability, T/C [13]: 95.2%
- viability, T/C [14]: 84.7%
- viability, T/C [15]: 90.8%
- viability, T/C [16]: 98.9%
- viability, T/C [17]: 69.2%
- viability, T/C [18]: 44.7%
- viability, T/C [19]: 95.2%
- viability, T/C [20]: 92.8%
- viability, T/C [21]: 82.4%
- viability, T/C [22]: 100%
- viability, T/C [23]: 73.9%
- viability, T/C [24]: 45.4%
- viability, T/C [25]: 86%
- viability, T/C [26]: 91.4%
- viability, T/C [27]: 98.5%
- viability, T/C [28]: 89.3%
- viability, T/C [29]: 60.7%
- viability, T/C [30]: 41.2%
- viability, T/C [31]: 100%
- viability, T/C [32]: 75.1%
- viability, T/C [33]: 70.4%
- viability, T/C [34]: 83.5%
- viability, T/C [35]: 71.8%
- viability, T/C [36]: 33.7%

Structure (SMILES): CC(=O)c1c(C)c2cnc(Nc3ccc(N4CCNCC4)cn3)nc2n(C2CCCC2)c1=O + COc1c(OCCCN2CCOCC2)ccc2c3n(c(=NC(=O)c4cnc(N)nc4)nc12)CCN3
- pIC50 (second compound 0.00316 µM): < 7.00
- pIC50 (second compound 0.01 µM): < 7.00
- pIC50 (second compound 0.0316 µM): < 7.00
- pIC50 (second compound 0.1 µM): < 7.00
- pIC50 (second compound 0.316 µM): > 9.50
- pIC50 (second compound 1 µM): > 9.50
- viability, T/C (second compound 0.00316 µM, first compound 0.000316 µM): 103%
- viability, T/C (second compound 0.00316 µM, first compound 0.001 µM): 101%
- viability, T/C (second compound 0.00316 µM, first compound 0.00316 µM): 97.2%
- viability, T/C (second compound 0.00316 µM, first compound 0.01 µM): 98.2%
- viability, T/C (second compound 0.00316 µM, first compound 0.0316 µM): 108%
- viability, T/C (second compound 0.00316 µM, first compound 0.1 µM): 62.8%
- viability, T/C (second compound 0.01 µM, first compound 0.000316 µM): 82.9%
- viability, T/C (second compound 0.01 µM, first compound 0.001 µM): 67.7%
- viability, T/C (second compound 0.01 µM, first compound 0.00316 µM): 90.8%
- viability, T/C (second compound 0.01 µM, first compound 0.01 µM): 79.1%
- viability, T/C (second compound 0.01 µM, first compound 0.0316 µM): 83.3%
- viability, T/C (second compound 0.01 µM, first compound 0.1 µM): 69.9%
- viability, T/C [1]: 75.7%
- viability, T/C [2]: 94.8%
- viability, T/C [3]: 75.5%
- viability, T/C [4]: 56.7%
- viability, T/C [5]: 67.3%
- viability, T/C [6]: 56.3%
- viability, T/C [7]: 64.9%
- viability, T/C [8]: 61.8%
- viability, T/C [9]: 51.5%
- viability, T/C [10]: 70.2%
- viability, T/C [11]: 62.7%
- viability, T/C [12]: 50.7%
- viability, T/C [13]: 37.2%
- viability, T/C [14]: 42.5%
- viability, T/C [15]: 49.1%
- viability, T/C [16]: 42.9%
- viability, T/C [17]: 35%
- viability, T/C [18]: 26.6%
- viability, T/C [19]: 17.8%
- viability, T/C [20]: 20.3%
- viability, T/C [21]: 18%
- viability, T/C [22]: 20.3%
- viability, T/C [23]: 22.3%
- viability, T/C [24]: 17.2%

Reference: PubChem BioAssay AID1963963 (Molecular Pharmacology Branch, DTP, NCI, 2024)
